The values that follow come from patent US20100047374A1, “COMPOSITION FOR PROTECTING MUSCLE DAMAGE” (priority 2007, published 2010).

The test system of one assay is IL-6. The assay is described as follows: Muscle damage-protecting effect using myotube cell: IL-6 gene expression by quantitative real time PCR after H2O2 treatment. It is filed as cell-based, mouse. To be noted: C2C12 myotube cell, 10 μg/ml for 24 hours, then 1 mM H2O2 for 2 hours, relative to GAPDH, compared to hydrogen peroxide group, FIGS. 3 and 4. As to the method: (§1) In this evaluation system, the C2C12 myoblast cell line derived from a mouse was used. The cell line is preserved in RIKEN BIORESOURCE CENTER, Japan, and the cell line can be shared. The cell is differentiated from a mononuclear myoblast cell into a maltinuclear myotube cell by differentiation induction, to thereby have a muscle fiber-like form. The cell was seeded in a collagen I-coated 35-mm dish and cultured in DMEM (11965-092, manufactured by GIBCO)+10% FBS (hereinafter, may be referred to as a growth medium) at 37° C. under 5% CO2 until the culture had 90% confluence. […] The concentration of the purified total RNA was determined based on the measurement results of the absorbance (260 nm, 280 nm). […] A quantitative real time PCR was performed by using the obtained cDNA. In the quantitative real time PCR, qPCR super mix-UDG with ROX was used as a reaction reagent, as primers for IL-6 and CXCL-1, Mm00446190 (manufactured by AB Corporation) and Mm00433859 (manufactured by AB Corporation) were used, respectively, and as a primer for […] (hereinafter, may be referred to as GAPDH) which was used as an internal standard, Mm99999915 (manufactured by AB Corporation) was used. […]
Background: In qPCR the cycle at which signal appears reflects the starting amount.

The next assay has as its system CXCL-1. The assay is described as follows: Muscle damage-protecting effect using myotube cell: CXCL-1 gene expression by quantitative real time PCR after H2O2 treatment. It is filed as cell-based, mouse. The conditions noted are these: C2C12 myotube cell, 10 μg/ml for 24 hours, then 1 mM H2O2 for 2 hours, relative to GAPDH, compared to hydrogen peroxide group, FIG. 4. As for the experimental part: as §1

Take `CCCCCCCCCCCCCCC[C@@H](O)[C@@H](N)CO` (single isomer, unassigned) [sphinganine]: in the assay on IL-6, the “gene expression of IL-6” value is given as “effect of inhibiting”. Moreover, the “gene expression of CXCL-1” value in the assay with CXCL-1 is “effect of inhibiting”.
